From ChEMBL document CHEMBL5356970, “Syntheses of the ω-pyridinium-containing very-long-chain ceramides PyrCer(24:1(15Z)) and PyrCer(24:0) and their anticancer activity” (Bioorg Med Chem Lett, 2024)
pIC50: −log10 of the molar value.

Tested on: HepG2
Test: Anticancer activity against human HepG2 cells assessed as reduction in cell survival
Format: functional, cell-based

Compound | pIC50
CCCCCCCCCCCCC/C=C/[C@@H](O)[C@H](CO)NC(=O)CCCCCCCCCCCCCCCCCCCCCCC[n+]1ccccc1 | 5.00
CCCCCCCC/C=C\CCCCCCCCCCCCCC(=O)N[C@@H](CO)[C@H](O)/C=C/CCCCCCCCCCCCC | < 3.70
CCCCCCCCCCCCC/C=C/[C@@H](O)[C@H](CO)NC(=O)CCCCCCCCCCCCC/C=C\CCCCCCCC[n+]1ccccc1 | 6.00
CCCCCCCCCCCCC/C=C/[C@@H](O)[C@H](CO)NC(=O)CCCCCCCCCCCCCCCCCCCCCCC | 3.72
